Reference: ChEMBL document CHEMBL4334431, “Gramicidin S-inspired antimicrobial cyclodextrin to disrupt gram-negative and gram-positive bacterial membranes” (Medchemcomm, 2019)
Converted amounts (≈) assume the structure as drawn. The source made the active and inactive calls. No cut-off for these calls is given here.

What was measured:
Pseudomonas aeruginosa [1] = assay: Antibacterial activity against Pseudomonas aeruginosa PAO1 assessed as bacterial growth inhibition after 20 hrs by liquid microdilution method; assay type: functional; conditions: PAO1, 20 h
[2] = Partition coefficient, log P of compound; assay type: physicochemical; conditions: octanol/water
Pseudomonas aeruginosa [3] = assay: Antibacterial activity against carbapenem-reistant Pseudomonas aeruginosa PAO1 assessed as bacterial growth inhibition after 20 hrs by liquid microdilution method; assay type: functional; conditions: PAO1, 20 h
Escherichia coli [4] = assay: Antimicrobial activity against ESBL-producing Escherichia coli assessed as bacterial growth inhibition after 20 hrs by liquid microdilution method; assay type: functional
[5] = Haemolytic activity in rabbit RBCs at 50 uM relative to control; assay type: ADME, cell-based, Oryctolagus cuniculus, Erythrocyte; conditions: rabbit red blood cells (erythrocytes), read-out: Activity
Staphylococcus aureus [6] = assay: Antibacterial activity against Staphylococcus aureus FDA 209P assessed as bacterial growth inhibition after 20 hrs by liquid microdilution method; assay type: functional
Escherichia coli [7] = assay: Antibacterial activity against Escherichia coli K12 W3110 assessed as bacterial growth inhibition after 20 hrs by liquid microdilution method; assay type: functional; conditions: K-12 substr. W3110, 20 h
Escherichia coli [8] = assay: Antimicrobial activity against carbapenem-resistant Escherichia coli assessed as bacterial growth inhibition after 20 hrs by liquid microdilution method; assay type: functional
Salmonella typhimurium = assay: Antibacterial activity against Salmonella typhimurium LT2 assessed as bacterial growth inhibition after 20 hrs by liquid microdilution method; assay type: functional, Salmonella enterica subsp. enterica serovar Typhimurium; conditions: Salmonella enterica, LT2, 20 h
Bacillus subtilis = assay: Antibacterial activity against Bacillus subtilis 168 assessed as bacterial growth inhibition after 20 hrs by liquid microdilution method; assay type: functional; conditions: Bacillus subtilis, 168, 20 h
Escherichia coli [9] = assay: Induction of membrane permeabilization in Escherichia coli K12 W3110 assessed as decrease in cell viability; assay type: functional, organism-based
Staphylococcus aureus [10] = assay: Induction of membrane permeabilization in Staphylococcus aureus FDA 209P assessed as decrease in cell viability; assay type: functional, organism-based
Staphylococcus aureus [11] = assay: Induction of membrane permeabilization in Staphylococcus aureus FDA 209P assessed as increase in potassium efflux; assay type: functional, organism-based
Escherichia coli [12] = assay: Induction of membrane permeabilization in Escherichia coli K12 W3110 assessed as increase in potassium efflux; assay type: functional, organism-based
Staphylococcus aureus [13] = assay: Antibacterial activity against Staphylococcus aureus FDA 209P at sub-MIC by resistant development assay; assay type: functional
Escherichia coli [14] = assay: Antimicrobial activity against […] at sub-MIC treated by resistant development assay; assay type: functional; conditions: K-12 substr. W3110

| SMILES | MIC (Pseudomonas aeruginosa [1]) | logP [2] | MIC (Staphylococcus aureus [6]) | MIC (Escherichia coli [7]) | MIC (Salmonella typhimurium) | MIC (Bacillus subtilis) | MIC (Pseudomonas aeruginosa [3]) | MIC (Escherichia coli [4]) | hemolysis at 50 µM [5] | MIC (Escherichia coli [8]) | Activity (Escherichia coli [9]) | Activity (Staphylococcus aureus [10]) | Activity (Staphylococcus aureus [11]) | Activity (Escherichia coli [12]) | MIC (Staphylococcus aureus [13]) | MIC (Escherichia coli [14]) |
| --- | --- | --- | --- | --- | --- | --- | --- | --- | --- | --- | --- | --- | --- | --- | --- | --- |
| CCC(=O)O[C@@H]1[C@@H](OC(=O)CC)[C@H]2O[C@H]3[C@H](OC(=O)CC)[C@@H](OC(=O)CC)[C@@H](O[C@H]4[C@H](OC(=O)CC)[C@@H](OC(=O)CC)[C@@H](O[C@H]5[C@@H](OC(=O)CC)[C@@H](OC(=O)CC)[C@H](O[C@H]6[C@H](OC(=O)CC)[C@@H](OC(=O)CC)[C@@H](O[C@H]7[C@H](OC(=O)CC)[C@@H](OC(=O)CC)[C@@H](O[C@H]8[C@H](OC(=O)CC)[C@@H](OC(=O)CC)[C@@H](O[C@@H]1[C@@H](Cn1cc(CN)nn1)O2)O[C@@H]8Cn1cc(CN)nn1)O[C@@H]7Cn1cc(CN)nn1)O[C@@H]6Cn1cc(CN)nn1)O[C@@H]5Cn1cc(CN)nn1)O[C@@H]4Cn1cc(CN)nn1)O[C@@H]3Cn1cc(CN)nn1 | 2 µM (≈ 4.96 µg/mL) | -0.89 | 5 µM (≈ 12.4 µg/mL) | 2 µM (≈ 4.96 µg/mL) | 5 µM (≈ 12.4 µg/mL) | 2 µM (≈ 4.96 µg/mL) | 6 µM (≈ 14.9 µg/mL) | 6 µM (≈ 14.9 µg/mL) | 20% | 11 µM (≈ 27.3 µg/mL) |  |  |  |  |  |  |
| CCCCCCCCCC(=O)N[C@@H](Cc1c[nH]c2ccccc12)C(=O)N[C@H](CC(N)=O)C(=O)N[C@@H](CC(=O)O)C(=O)N[C@@H]1C(=O)NCC(=O)N[C@@H](CCCN)C(=O)N[C@@H](CC(=O)O)C(=O)N[C@H](C)C(=O)N[C@@H](CC(=O)O)C(=O)NCC(=O)N[C@H](CO)C(=O)N[C@@H]([C@H](C)CC(=O)O)C(=O)N[C@@H](CC(=O)c2ccccc2N)C(=O)O[C@@H]1C |  |  | 3 µM (≈ 4.86 µg/mL) |  |  |  |  |  |  |  |  |  |  |  |  |  |
| CCn1cc(C(=O)O)c(=O)c2cc(F)c(N3CCNCC3)cc21 [NORFLOXACIN] |  |  |  |  |  |  |  |  |  |  |  |  |  |  | 0.8 to 3 µM (≈ 0.255 to 0.958 µg/mL) | 0.2 to 6 µM (≈ 0.0639 to 1.92 µg/mL) |

The next lines start with results.

| MIC (Pseudomonas aeruginosa [1]) | logP [2] | MIC (Staphylococcus aureus [6]) | MIC (Escherichia coli [7]) | MIC (Salmonella typhimurium) | MIC (Bacillus subtilis) | SMILES | MIC (Pseudomonas aeruginosa [3]) | MIC (Escherichia coli [4]) | hemolysis at 50 µM [5] | MIC (Escherichia coli [8]) | Activity (Escherichia coli [9]) | Activity (Staphylococcus aureus [10]) | Activity (Staphylococcus aureus [11]) | Activity (Escherichia coli [12]) | MIC (Staphylococcus aureus [13]) | MIC (Escherichia coli [14]) |
| --- | --- | --- | --- | --- | --- | --- | --- | --- | --- | --- | --- | --- | --- | --- | --- | --- |
| > 45 µM | -2.66 | > 45 µM | > 45 µM | > 45 µM | 22 µM (≈ 42.6 µg/mL) | NCc1cn(C[C@H]2O[C@@H]3O[C@H]4[C@H](O)[C@@H](O)[C@@H](O[C@H]5[C@H](O)[C@@H](O)[C@@H](O[C@H]6[C@H](O)[C@@H](O)[C@@H](O[C@H]7[C@H](O)[C@@H](O)[C@@H](O[C@H]8[C@H](O)[C@@H](O)[C@@H](O[C@H]9[C@H](O)[C@@H](O)[C@@H](O[C@H]%10[C@@H](O)[C@H](O)[C@@H](O[C@H]2[C@H](O)[C@H]3O)O[C@@H]%10Cn2cc(CN)nn2)O[C@@H]9Cn2cc(CN)nn2)O[C@@H]8Cn2cc(CN)nn2)O[C@@H]7Cn2cc(CN)nn2)O[C@@H]6Cn2cc(CN)nn2)O[C@@H]5Cn2cc(CN)nn2)O[C@@H]4Cn2cc(CN)nn2)nn1 |  |  | 0% |  |  |  |  |  |  |  |
| 31 µM (≈ 94.8 µg/mL) | 0.24 | > 32 µM | > 32 µM | > 31 µM | > 32 µM | CC(C)C(=O)O[C@@H]1[C@@H](OC(=O)C(C)C)[C@H]2O[C@H]3[C@H](OC(=O)C(C)C)[C@@H](OC(=O)C(C)C)[C@@H](O[C@H]4[C@H](OC(=O)C(C)C)[C@@H](OC(=O)C(C)C)[C@@H](O[C@H]5[C@H](OC(=O)C(C)C)[C@@H](OC(=O)C(C)C)[C@@H](O[C@H]6[C@H](OC(=O)C(C)C)[C@@H](OC(=O)C(C)C)[C@@H](O[C@H]7[C@H](OC(=O)C(C)C)[C@@H](OC(=O)C(C)C)[C@@H](O[C@H]8[C@H](OC(=O)C(C)C)[C@@H](OC(=O)C(C)C)[C@@H](O[C@H]9[C@H](OC(=O)C(C)C)[C@@H](OC(=O)C(C)C)[C@@H](O[C@@H]1[C@@H](Cn1cc(CN)nn1)O2)O[C@@H]9Cn1cc(CN)nn1)O[C@@H]8Cn1cc(CN)nn1)O[C@@H]7Cn1cc(CN)nn1)O[C@@H]6Cn1cc(CN)nn1)O[C@@H]5Cn1cc(CN)nn1)O[C@@H]4Cn1cc(CN)nn1)O[C@@H]3Cn1cc(CN)nn1 |  |  | 101% |  |  |  |  |  |  |  |
| > 36 µM | -2.2 | > 36 µM | > 36 µM | > 36 µM | > 36 µM | CC(=O)O[C@@H]1[C@@H](OC(C)=O)[C@H]2O[C@H]3[C@H](OC(C)=O)[C@@H](OC(C)=O)[C@@H](O[C@H]4[C@H](OC(C)=O)[C@@H](OC(C)=O)[C@@H](O[C@H]5[C@H](OC(C)=O)[C@@H](OC(C)=O)[C@@H](O[C@H]6[C@H](OC(C)=O)[C@@H](OC(C)=O)[C@@H](O[C@H]7[C@H](OC(C)=O)[C@@H](OC(C)=O)[C@@H](O[C@H]8[C@H](OC(C)=O)[C@@H](OC(C)=O)[C@@H](O[C@H]9[C@H](OC(C)=O)[C@@H](OC(C)=O)[C@@H](O[C@@H]1[C@@H](Cn1cc(CN)nn1)O2)O[C@@H]9Cn1cc(CN)nn1)O[C@@H]8Cn1cc(CN)nn1)O[C@@H]7Cn1cc(CN)nn1)O[C@@H]6Cn1cc(CN)nn1)O[C@@H]5Cn1cc(CN)nn1)O[C@@H]4Cn1cc(CN)nn1)O[C@@H]3Cn1cc(CN)nn1 |  |  | 1% |  | Active | Active | Active | Active |  |  |
